Measured values: PubChem BioAssay (NCI)
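These data come from cells grown in 96-well plates and exposed to compound for 48 hours at five concentrations. GI50 = concentration required for 50% inhibition of growth. TGI marks complete inhibition of growth.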

What was measured:
Test in all cases: NCI-60 cell line screen, 48 h; in the data active means GI50 below about 0.43 µM; inactive means the rest
KM12 colon = system: KM12 colon
HCC-2998 colon = system: HCC-2998 colon
IGROV1 ovarian = system: IGROV1 ovarian
DU-145 prostate = system: DU-145 prostate
SR leukemia = system: SR leukemia
MOLT-4 leukemia = system: MOLT-4 leukemia
RXF 393 renal = system: RXF 393 renal
NCI-H226 lung = system: NCI-H226 lung
OVCAR-4 ovarian = system: OVCAR-4 ovarian
SK-OV-3 ovarian = system: SK-OV-3 ovarian

Cn1c(=O)c2c(ncn2CC(=O)Nc2ccc(-c3ccccc3)nn2)n(C)c1=O
inactive: GI50 (KM12 colon) > 100 µM | GI50 (HCC-2998 colon) > 100 µM | GI50 (IGROV1 ovarian) > 100 µM | GI50 (DU-145 prostate) > 100 µM | GI50 (SR leukemia) 42.9 µM | GI50 (MOLT-4 leukemia) > 100 µM | GI50 (RXF 393 renal) 48.3 µM | GI50 (NCI-H226 lung) > 100 µM | GI50 (OVCAR-4 ovarian) > 100 µM | GI50 (SK-OV-3 ovarian) > 100 µM
> 100 µM: TGI (KM12 colon) | TGI (HCC-2998 colon) | TGI (IGROV1 ovarian) | TGI (DU-145 prostate) | TGI (SR leukemia) | TGI (MOLT-4 leukemia) | TGI (RXF 393 renal) | TGI (NCI-H226 lung) | TGI (OVCAR-4 ovarian) | TGI (SK-OV-3 ovarian)

Cc1cc(C)n(-c2nnc3n2N=C(c2ccc(-c4ccccc4)cc2)CS3)n1
6.51 µM: TGI (RXF 393 renal)
inactive: GI50 (KM12 colon) 3.49 µM | GI50 (HCC-2998 colon) 5.14 µM | GI50 (IGROV1 ovarian) 4.81 µM | GI50 (DU-145 prostate) 3.82 µM | GI50 (SR leukemia) 3.06 µM | GI50 (MOLT-4 leukemia) 3.66 µM | GI50 (RXF 393 renal) 2.08 µM | GI50 (NCI-H226 lung) 4.24 µM | GI50 (OVCAR-4 ovarian) 4.12 µM | GI50 (SK-OV-3 ovarian) 3.79 µM
> 100 µM: TGI (KM12 colon) | TGI (HCC-2998 colon) | TGI (IGROV1 ovarian) | TGI (DU-145 prostate) | TGI (SR leukemia) | TGI (MOLT-4 leukemia) | TGI (NCI-H226 lung) | TGI (OVCAR-4 ovarian) | TGI (SK-OV-3 ovarian)

C[C@]12CC[C@@H]3c4ccc(O)c([N+](=O)[O-])c4CC[C@H]3[C@@H]1CC[C@@H]2NS(=O)(=O)c1cccc(Br)c1
3.97 µM: TGI (HCC-2998 colon)
inactive: GI50 (KM12 colon) 1.89 µM | GI50 (HCC-2998 colon) 2.06 µM | GI50 (IGROV1 ovarian) 3.22 µM | GI50 (DU-145 prostate) 3.6 µM | GI50 (SR leukemia) 3.09 µM | GI50 (MOLT-4 leukemia) 2.98 µM | GI50 (RXF 393 renal) 2.03 µM | GI50 (NCI-H226 lung) 2.9 µM | GI50 (OVCAR-4 ovarian) 1.47 µM | GI50 (SK-OV-3 ovarian) 2.94 µM
9.41 µM: TGI (SR leukemia)
9.35 µM: TGI (IGROV1 ovarian)
13.4 µM: TGI (MOLT-4 leukemia)
12.4 µM: TGI (DU-145 prostate)
7.53 µM: TGI (SK-OV-3 ovarian)
8.53 µM: TGI (NCI-H226 lung)
4.21 µM: TGI (RXF 393 renal)
2.94 µM: TGI (OVCAR-4 ovarian)
4.05 µM: TGI (KM12 colon)

COc1ccc2c(Oc3ccc(NC(=O)c4c(C)n(CC(C)(C)O)n(-c5ccccc5)c4=O)nc3)ccnc2c1
> 90 µM: TGI (OVCAR-4 ovarian)
> 78 µM: TGI (NCI-H226 lung)
inactive: GI50 (KM12 colon) 2.23 µM | GI50 (HCC-2998 colon) 34 µM | GI50 (IGROV1 ovarian) 12.3 µM | GI50 (DU-145 prostate) 12.1 µM | GI50 (SR leukemia) 8.57 µM | GI50 (MOLT-4 leukemia) 9.07 µM | GI50 (RXF 393 renal) 3.38 µM | GI50 (NCI-H226 lung) 16.2 µM | GI50 (OVCAR-4 ovarian) 10.7 µM | GI50 (SK-OV-3 ovarian) 6.06 µM
> 80.8 µM: TGI (SK-OV-3 ovarian)
41.5 µM: TGI (RXF 393 renal)
> 100 µM: TGI (KM12 colon) | TGI (HCC-2998 colon) | TGI (IGROV1 ovarian) | TGI (DU-145 prostate) | TGI (SR leukemia) | TGI (MOLT-4 leukemia)

COC(C(=O)[C@@H](O)[C@@H](C)O)[C@@H]1Cc2cc3cc(O[C@H]4C[C@@H](O[C@H]5C[C@@H](O)[C@H](O)C(C)O5)[C@H](O)C(C)O4)c(C)c(O)c3c(O)c2C(=O)[C@H]1O[C@H]1C[C@@H](O[C@H]2C[C@@H](O[C@H]3C[C@@H](O)[C@H](OC)C(C)O3)[C@@H](O)C(C)O2)[C@H](O)C(C)O1 (some centres not stated)
0.139 µM: TGI (RXF 393 renal)
> 26.5 µM: TGI (OVCAR-4 ovarian)
0.114 µM: TGI (HCC-2998 colon)
> 33.3 µM: TGI (KM12 colon) | TGI (IGROV1 ovarian) | TGI (DU-145 prostate) | TGI (SR leukemia) | TGI (NCI-H226 lung) | TGI (SK-OV-3 ovarian)
active: GI50 (HCC-2998 colon) 0.0293 µM | GI50 (IGROV1 ovarian) 0.0239 µM | GI50 (DU-145 prostate) 0.0188 µM | GI50 (MOLT-4 leukemia) 0.0231 µM | GI50 (RXF 393 renal) 0.034 µM | GI50 (NCI-H226 lung) 0.0209 µM | GI50 (OVCAR-4 ovarian) 0.049 µM
0.219 µM: TGI (MOLT-4 leukemia)
